This is an account of results in patent US20100216788A1, “FUSED HETEROCYCLIC COMPOUND” (TAKEDA PHARMACEUTICAL COMPANY LIMITED, priority 2005, published 2010).

Assay [1] deals with human breast cancer cell BT-474. Description: Inhibitory action on breast cancer cell BT-474 proliferation in vitro. It counts as cell-based. The note with it: 120 h, BT-474 cells, cultured 5 days with compound, SRB staining of cell protein. As for the experimental part: A suspension of human breast cancer cell. BT-474 (100 μl (6,000 cells)) were seeded to attach in a 96-well microplate and cultured in an incubator (37° C., 5% carbon dioxide). On the following day, 100 μl of a solution of each test compound previously diluted serially in 2-fold, was added to give indicated dose, and the cells were cultured for 5 days. After the culture medium containing the test compound was removed, the cells were washed and fixed with 50% trichloroacetic acid, after which a 0.4% (w/v) SRB solution (dissolved in 1% acetic acid) was added to stain the cell protein (Skehan et al., Journal of the National Cancer Institute, Vol. 82, pp. 1107-1112, 1990). After washing with a 1% acetic acid solution, 100 μl of Tris solution (10 mM) was added to extract the pigment and the absorbance was measured at a wavelength of 550 nm to quantify the amount of cells as protein content. Taking as 100% the protein content for the control group, which received no test compound solution, the ratio of the residual protein content for, each treatment group was determined, and the compound concentration required to achieve 50% suppression of the residual cell content relative to the control (IC50 value) was calculated.
Background: The SRB assay estimates cell density from bound dye.

The target in assay [2] is T1, HER2 intracellular domain (Homo sapiens, UniProt P04626).
T1 construct: made in house; host or cells: SF-21 insect cells infected with recombinant baculovirus BAC-HER2 (pFASTBAC1)
T1 sequence (P04626 676-1255 limits assumed): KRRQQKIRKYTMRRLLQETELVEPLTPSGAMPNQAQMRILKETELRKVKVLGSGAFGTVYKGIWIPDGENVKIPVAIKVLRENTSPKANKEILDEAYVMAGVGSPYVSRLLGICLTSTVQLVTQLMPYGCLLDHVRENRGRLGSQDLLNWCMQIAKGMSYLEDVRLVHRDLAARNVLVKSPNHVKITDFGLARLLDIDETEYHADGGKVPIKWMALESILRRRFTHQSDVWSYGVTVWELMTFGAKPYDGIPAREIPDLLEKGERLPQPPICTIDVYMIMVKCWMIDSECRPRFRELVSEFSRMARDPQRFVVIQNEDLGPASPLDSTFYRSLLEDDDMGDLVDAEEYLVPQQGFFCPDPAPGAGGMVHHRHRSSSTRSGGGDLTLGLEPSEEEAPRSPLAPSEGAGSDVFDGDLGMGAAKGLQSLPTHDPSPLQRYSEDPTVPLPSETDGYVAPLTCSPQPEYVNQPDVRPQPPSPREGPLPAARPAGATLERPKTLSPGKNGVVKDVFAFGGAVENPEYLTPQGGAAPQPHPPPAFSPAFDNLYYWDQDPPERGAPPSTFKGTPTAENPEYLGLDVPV
Description: Determination of HER2 kinase inhibitory activity. The assay is classed as biochemical. The settings on record: test compound at 1.0 μM, poly-Glu:Tyr (4:1) substrate, [γ-32P]ATP, 25° C. 10 min; for inhibition at 1 µM: read-out: Inhibitory rate (%) at 1.0 μM. The procedure:
Human HER2 gene was cloned by RT-PCR using total RNA prepared from MCF7 cells as a template. The primer used for RT-PCR was prepared from nucleotide sequence (Genbank Accession No. M11730) information of HER2 gene by adding a nucleotide sequence encoding DYKDDDD peptide and a restriction enzyme recognition sequence to a nucleotide sequence (2176-3918 of Genbank Accession No. M11730) encoding the HER2 intracellular domain region, so that the protein contains an N-terminal DYKDDDD peptide tag. The primer nucleotide sequence is shown below.
The RT reaction was conducted using SuperScript First-Strand Synthesis System for RT-PCR (Invitrogen) and the PCR reaction was conducted using a KOD-plus kit (TOYOBO). The obtained PCR product was electrophoresed on agarose gel (1%), the DNA fragment amplified by PCR was recovered from the gel, and then digested with restriction enzymes Sal I and Sph I. The DNA treated with the restriction enzymes was electrophoresed on agarose gel (1%), and the obtained DNA fragment was recovered and ligated to plasmid pFASTBAC1 (Invitrogen) digested with restriction enzymes Sal I and Sph I to give expression plasmid pFB-HER2. The nucleotide sequence of the insertion fragment was confirmed and found to be identical with the nucleotide sequence (2176-3918 of Genbank Accession M11730) of HER2 intracellular domain. Furthermore, using BAC-TO-BAC Baculovirus Expression System (Invitrogen), recombinant baculovirus BAC-HER2 was prepared.
SF-21 cells were sown at 1×10^6 cells/mL to Sf-900II SFM medium (1 L, Invitrogen) containing 10% fetal bovine serum (trace), 50 mg/L gentamicin (Invitrogen) and 0.1% Pluronic F-68 (Invitrogen), and shaking culture was performed using a 2 L volume Erlenmeyer flask at 27° C., 100 rpm. After culturing for 24 hr, recombinant baculovirus BAC-HER2 (13.4 mL) was added, and the mixture was further cultured for 3 days. The culture medium was centrifuged at 2,000 rpm for 5 min. to give virus-infected cells. The infected cells were washed with a phosphate buffered saline (Invitrogen), centrifuged under the same conditions, and the cells were preserved at −80° C. The cryopreserved cells were thawed in ice, suspended in buffer A (50 mM Tris buffer (30 mL, pH 7.4) containing 20% glycerol, 0.15 M NaCl) supplemented with Complete Protease Inhibitor (Boehringer), and ruptured 3 times with a Polytron homogenizer (Kinematica) at 20,000 rpm for 30 sec. The rupture medium was clarified by centrifugation at 40,000 rpm for 30 min. and filtered with a 0.45 μm filter. The filtrate was passed through a column packed with Anti-FLAG M2 Affinity Gel (4 mL, Sigma) at a flow rate of about 0.5 mL/min. The column was washed with buffer A, and eluted with buffer A containing 100 μg/mL of FLAG peptide. The eluate was concentrated with Vivaspin 20 (Vivascience) having a molecular weight cut off of 30K. The concentrate was purified by gel filtration using Hi Load Superdex 200pg 16/60 (Amersham Bioscience) equilibrated with buffer A. The fractions containing HER2 intracellular domain were collected, glycerol was added to the final concentration of 50% and cryopreserved at −80° C.
A test compound dissolved in dimethyl sulfoxide (DMSO) was diluted with a buffer for kinase reaction (50 mM Tris-HCl (pH7.5), 5 mM MgCl2, 5 mM MnCl2, 2 mM dithiothreitol, 0.01% Tween-20). To this compound solution (10 μL) was added a buffer for kinase reaction (20 μL) containing 5 μg/mL of HER2 intracellular domain obtained in Experimental Example 1B and 12.5 μg/mL of polypeptide substrate poly-Glu:Tyr (4:1) (Sigma). To the obtained mixture was added 20 μL of ATP solution (1.25 μM ATP, 0.05 μCi [γ-^32P]ATP), the mixture was allowed to react at 25° C. for 10 min. and the reaction was quenched with 50 μL of 20% TCA solution. The reaction solution was allowed to stand at 4° C. for 20 min., and the acid insoluble fraction was transferred to GF/C filter (PerkinElmer) using cell harvester (PerkinElmer) and washed with 250 mM phosphoric acid solution. […]

Counter-ions that a name gives are not always drawn.

As a reminder, the IC50 is the concentration that gives 50% inhibition. `CC(C)(O)CC(=O)NCCn1ccc2ncnc(Nc3ccc4c(cnn4Cc4cccc(F)c4)c3)c21` [Example G-5, N-[2-(4-{[1-(3-fluorobenzyl)-1H-indazol-5-yl]amino}-5H-pyrrolo[3,2-d]pyrimidin-5-yl)ethyl]-3-hydroxy-3-methylbutanamide]: the IC50 in assay [1] was under 100 nM. Further, in assay [2], the inhibition at 1 µM was 93%.

Regarding `CC(C)(C)NC(=O)Cc1cccc(Oc2ccc(Nc3ncnc4ccn(CCO)c34)cc2Cl)c1` [Example C-89, N-(tert-butyl)-2-[3-(2-chloro-4-{[5-(2-hydroxyethyl)-5H-pyrrolo[3,2-d]pyrimidin-4-yl]amino}phenoxy)phenyl]acetamide], in assay [2], the inhibition at 1 µM stood at 100%.

Take `CS(=O)(=O)CC(=O)NCCn1ccc2ncnc(Nc3ccc(Oc4cccc(OCC5CC5)c4)c(Cl)c3)c21` [Example C-97, N-{2-[4-({3-chloro-4-[3-(cyclopropylmethoxy)phenoxy]phenyl}amino)-5H-pyrrolo[3,2-d]pyrimidin-5-yl]ethyl}-2-(methylsulfonyl)acetamide hydrochloride]: in assay [1], the IC50 was under 100 nM.

For `O=C(Nc1cccc(Oc2ccc(Nc3ncnc4ccn(CCOCCO)c34)cc2Cl)c1)C1CC1` [Example C-45, N-{3-[2-chloro-4-({5-[2-(2-hydroxyethoxy)ethyl]-5H-pyrrolo[3,2-d]pyrimidin-4-yl}amino)phenoxy]phenyl}cyclopropanecarboxamide], in assay [1], the IC50 is under 100 nM. Moreover, in assay [2], the inhibition at 1 µM stood at 97%.

In the case of `CC(C)(C)NC(=O)c1cccc(Cn2ncc3cc(Nc4ncnc5ccn(CCO)c45)ccc32)c1` [Example G-14, N-(tert-butyl)-3-[(5-{[5-(2-hydroxyethyl)-5H-pyrrolo[3,2-d]pyrimidin-4-yl]amino}-1H-indazol-1-yl)methyl]benzamide], the inhibition at 1 µM in assay [2] stood at 100%.

`OCCOCCn1ccc2ncnc(Nc3cnc(Oc4cccc(C(F)(F)F)c4)c(Cl)c3)c21` [Example B-1, 2-{2-[4-({5-chloro-6-[3-(trifluoromethyl)phenoxy]pyridin-3-yl}amino)-5H-pyrrolo[3,2-d]pyrimidin-5-yl]ethoxy}ethanol]: the inhibition at 1 µM in assay [2] worked out at 99%.

As for `Cc1cc(Nc2ncnc3ccn(CCNC(=O)CS(C)(=O)=O)c23)ccc1Oc1cccc(OCC(F)(F)F)c1` [Example C-116, 2-(methylsulfonyl)-N-{2-[4-({3-methyl-4-[3-(2,2,2-trifluoroethoxy)phenoxy]phenyl}amino)-5H-pyrrolo[3,2-d]pyrimidin-5-yl]ethyl}acetamide hydrochloride], the IC50 in assay [1] was under 100 nM.

Turning to `CC(C)(C(=O)NCCn1ccc2ncnc(Nc3ccc(Oc4cccc(Cl)c4)c(Cl)c3)c21)S(C)(=O)=O` [Example A-1, N-[2-(4-{[3-chloro-4-(3-chlorophenoxy)phenyl]amino}-5H-pyrrolo[3,2-d]pyrimidin-5-yl)ethyl]-2-methyl-2-(methylsulfonyl)propanamide], the IC50 in assay [1] was under 100 nM. Besides, the inhibition at 1 µM in assay [2] turned out to be 98%.

On to `CC(C)(C)CC(=O)c1cccc(Oc2ccc(Nc3ncnc4ccn(CCO)c34)cc2Cl)c1` [Example E-22, 1-[3-(2-chloro-4-{[5-(2-hydroxyethyl)-5H-pyrrolo[3,2-d]pyrimidin-4-yl]amino}phenoxy)phenyl]-3,3-dimethylbutan-1-one], for which the inhibition at 1 µM in assay [2] was found to be 99%.

With `CC(C)(C)NC(=O)c1cccc(Oc2ccc(Nc3ncnc4ccn(CCO)c34)cc2Cl)c1` [Example C-26, N-(tert-butyl)-3-(2-chloro-4-{[5-(2-hydroxyethyl)-5H-pyrrolo[3,2-d]pyrimidin-4-yl]amino}phenoxy)benzamide], in assay [2], the inhibition at 1 µM is 98%.

On to `CC(C)(C(=O)NCCn1ccc2ncnc(Nc3ccc(Oc4cccc(Cl)c4)c(Cl)c3)c21)S(C)(=O)=O.Cc1ccc(S(=O)(=O)O)cc1` [Example A-15, N-[2-(4-{[3-chloro-4-(3-chlorophenoxy)phenyl]amino}-5H-pyrrolo[3,2-d]pyrimidin-5-yl)ethyl]-2-methyl-2-(methylsulfonyl)propanamide p-toluenesulfonate], for which, in assay [2], the “Inhibitory rate (%) at 1.0 μM” value was 99%.
